The values below come from ChEMBL document CHEMBL1150462, “Synthesis of 2-O-substituted -D-Gal-(14)--D-GlcNAc-1-0-Bn as specific acceptors for -L-(13) fucosyltransferases” (1992).

The structures appear in SMILES notation.

The species named for assay [1] is Homo sapiens. Briefly: Relative activity was determined at 0.3 mM of compound in ovarian cancer sera in alpha-L-(1-3) fucosyltransferase assay using [14C]-fucose as a ligand. The format is functional.
Assay [2] is filed under the species Homo sapiens. Briefly: Percentage of fucosyltransferase accepted by the compound in alpha-L-(1-3) fucosyltransferase assay using [14C]fucose as a ligand;=. It counts as functional.
A short description of assay [3]: Kinetic constant of the enzyme activity was determined by incorporation of [14C]- fucose as a function of acceptor concentration.
The subject of assay [4] is Ovarian carcinoma cell. Briefly: Percentage of fucosyltransferase accepted by the compound in alpha-L-(1-3) fucosyltransferase assay using [14C]-fucose as a ligand. It counts as functional, Homo sapiens.
The test system of assay [5] is Ovarian carcinoma cell. As to the kind of experiment: Relative activity was determined at 0.3 mM of compound in ovarian-tumor extract in alpha-L-(1-3) fucosyltransferase assay using [14C]fucose as a ligand. It counts as functional, Homo sapiens.
For assay [6], the system named is Ovarian carcinoma cell. As to the kind of experiment: (§1) Percentage of fucosyltransferase accepted by the compound in alpha-L-(1-3) fucosyltransferase assay using [14C]fucose as a ligand. The format is functional, Homo sapiens.
The species entered for assay [7] is Homo sapiens. The description is as §1. The format is functional.

Usually Km stands for the concentration of substrate that gives half-maximal velocity. Consider `CC(=O)N[C@H]1[C@H](OCc2ccccc2)O[C@H](CO)[C@@H](O[C@@H]2O[C@H](CO)[C@H](O)[C@H](O)[C@H]2O[C@@H]2O[C@@H](C)[C@@H](O)[C@@H](O)[C@@H]2O)[C@@H]1O`, for which the Relative activity was found to be 7350 c.p.m in the assay listed under Homo sapiens [1], 168% in the assay listed under Homo sapiens [2], 233% in the assay on Ovarian carcinoma cell [4] and 42580 c.p.m with Ovarian carcinoma cell [5]. For the same compound, the Km in assay [3] came out at 260 µM.

Regarding `CC(=O)N[C@@H]1[C@@H](O)[C@H](O[C@@H]2O[C@H](CO)[C@H](O)[C@H](O)[C@H]2O)[C@@H](CO)O[C@H]1O`, the Relative activity in the assay listed under Homo sapiens [1] was 1620 c.p.m; with Ovarian carcinoma cell [5], 5024 c.p.m.

Regarding `CC(=O)N[C@@H]1[C@@H](O)[C@H](O[C@@H]2O[C@H](CO)[C@H](O)[C@H](O)[C@H]2O[C@@H]2O[C@@H](C)[C@@H](O)[C@@H](O)[C@@H]2O)[C@@H](CO)O[C@H]1O`, the Relative activity was determined as 4380 c.p.m in the assay filed under Homo sapiens [1], 100% in the assay with Ovarian carcinoma cell [6], 100% in the assay filed under Homo sapiens [7] and 18291 c.p.m in the assay with Ovarian carcinoma cell [5].

In the case of `CO[C@H]1[C@H](O[C@H]2[C@H](O)[C@@H](NC(C)=O)C(O)O[C@@H]2CO)O[C@H](CO)[C@H](O)[C@@H]1O` (stereo partly specified), the Relative activity in the assay listed under Homo sapiens [1] was determined as 1730 c.p.m; in the assay filed under Homo sapiens [7], 100%; in the assay on Ovarian carcinoma cell [4], 100%; in the assay with Ovarian carcinoma cell [5], 3977 c.p.m. In addition, the Michaelis constant (Km) in assay [3] came out at 1330 µM.

As to `CO[C@H]1[C@H](O[C@H]2[C@H](O)[C@@H](NC(C)=O)[C@H](OCc3ccccc3)O[C@@H]2CO)O[C@H](CO)[C@H](O)[C@@H]1O`, the Relative activity in the assay listed under Homo sapiens [1] came to 5330 c.p.m; in the assay with Ovarian carcinoma cell [6], 375%; in the assay filed under Homo sapiens [7], 308%; in the assay on Ovarian carcinoma cell [5], 14924 c.p.m. Besides, the Km in assay [3] came to 440 µM.
